Results taken from publication PMC9428149, “Tackling recalcitrant Pseudomonas aeruginosa infections in critical illness via anti-virulence monotherapy” (Nature Communications, 2022).
“And” between values parts separate entries of the source, which are not always exact repeats. Equal entries are not always repeated. “Also recorded” adds a separate entry of the source.

Legend:
[1] = test system: claudin-1; test: Tight junction claudin-1 immunofluorescence, distal ileum; type: in vivo, mouse;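 for Claudin-1 immunofluorescence quantification (Supplimentary Figure 9): fluorescence intensity in arbitrary units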
Procedure: For the group supplemented with our MvfR-inhibiting compound (D88), mice received five subcutaneous injections (at the nape of the animals) at 1, 4, 8, 12, and 18 h post-BI, at a dose of 24 mg kg^−1 body weight. D88 was prepared in a 40% Captisol vehicle. Control groups received equivalent doses of 40% Captisol vehicle.
Samples of distal ileum fixed with 4% paraformaldehyde were cut in sections and mounted on microscope slides. After deparaffinization and antigen retrieval (Antigen Retrieval reagent; R&D Systems, Minneapolis, MN, USA), tissue sections were immersed in PBS/0.1 tween for 10 min and were blocked by Normal Goat Serum. They were then incubated with primary antibody rabbit polyclonal anti-claudin-1 (Catalog# 71-7800; final concentration, 1:100; Invitrogen, Rockford, IL, USA) overnight in a humid chamber at 4 °C. The sections were washed three times with PBS and secondary antibody goat anti-rabbit (Catalog# ab150061; final concentration: 1:500; Abcam, Cambridge, MA, USA) and DAPI (Catalog# ab228549; Abcam, Cambridge, MA, USA) were added, and incubated 1 h at room temperature. The sections were then washed three times with PBS, dried, and mounted, and images were collected using a confocal microscope (Nikon ECLIPSE Ti2; NIS-Elements AR 5.21.03; Nikon Instruments Inc., Tokyo, Japan).

[2] = test system: A549 cells; test: MTT cytotoxicity, A549; type: cell-based, human; conditions: for Cell viability (MTT) relative to Vehicle: A549, replicates
Procedure: For the determination of cytotoxicity, cell viability was determined using the MTT (3-[4, 5-dimethyl-2-thiazolyl]−2, 5-diphenyl-2H-tetrazolium bromide) assay in the presence and absence of compound (D88). […] The cells were then treated with either vehicle or different concentrations of D88 (10, 20, 30, 40, and 50 µM) for 24 h at 37 °C and 5% CO2. After 24 h, the cells were washed three times with PBS and were incubated in 200 μL PBS containing 200 μg mL^−1 MTT (Sigma-Aldrich) in a 96-well culture plate for 2 h at 37 °C and 5% CO2. Following incubation, the supernatant was discarded, and the cells were lysed in 95% isopropanol and 5% formic acid.

Q: What does the source list for `N#Cc1ccc(NC(=O)C(F)C(=O)Nc2ccc(Oc3ccccc3)cc2)cc1` (centres unmarked) [D88]?
A: Claudin-1 immunofluorescence quantification (Supplimentary Figure 9) ([1]; PA14+D88 group, compare Sham, PA14+Vehicle, ΔmvfR, individual measurements): 148.508 and 162.001 and 157.541 and 137.39 and 152.028 and 182.597 and 148.327 and 116.923 and 109.707 and 109.463; claudin-1 staining fluorescence intensity ([1]; ileum, PA14 infected + D88, 22 h): 142.48 AUs; cell viability ([2]; A549, 10-50 µM, 24 h): None of the used compound concentrations exerted any cytotoxic effect; also recorded: no significant changes in cell viability; Cell viability (MTT) relative to Vehicle ([2]; 10 μM): 104.92 and 112.79 and 105.24 and 97.24 and 88.17; Cell viability (MTT) relative to Vehicle ([2]; 20 μM): 104.85 and 98.03 and 95.15 and 98.27 and 93.91; Cell viability (MTT) relative to Vehicle ([2]; 30 μM): 88.06 and 91.37 and 110.19 and 88.29 and 118.10; Cell viability (MTT) relative to Vehicle ([2]; 40 μM): 104.24 and 86.59 and 104.97 and 101.16 and 96.70; Cell viability (MTT) relative to Vehicle ([2]; 50 μM): 95.15 and 105.16 and 99.77 and 98.12
